According to PubChem BioAssay (NCI):
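The compound was tested at five concentrations on cells cultured in 96-well plates, with a 48-hour exposure period. Abbreviation: GI50, concentration required for 50% inhibition of growth. TGI: concentration producing complete growth inhibition.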

How the values were obtained:
Test in all cases: DTP human tumour cell line panel, 48 h
MDA-MB-231 breast = tested on: MDA-MB-231 breast
PC-3 prostate = tested on: PC-3 prostate
CCRF-CEM leukemia = tested on: CCRF-CEM leukemia
OVCAR-8 ovarian = tested on: OVCAR-8 ovarian
UO-31 renal = tested on: UO-31 renal
NCI-H23 lung = tested on: NCI-H23 lung
HCT-15 colon = tested on: HCT-15 colon
DU-145 prostate = tested on: DU-145 prostate
MOLT-4 leukemia = tested on: MOLT-4 leukemia
OVCAR-4 ovarian = tested on: OVCAR-4 ovarian
SF-268 CNS = tested on: SF-268 CNS
MCF7 breast = tested on: MCF7 breast
OVCAR-3 ovarian = tested on: OVCAR-3 ovarian
NCI/ADR-RES ovarian = tested on: NCI/ADR-RES ovarian
NCI-H226 lung = tested on: NCI-H226 lung
SK-MEL-5 melanoma = tested on: SK-MEL-5 melanoma
NCI-H522 lung = tested on: NCI-H522 lung
EKVX NSCLC = tested on: EKVX NSCLC
A549 NSCLC = tested on: A549 NSCLC
HS 578T breast = tested on: HS 578T breast
HCT-116 colon = tested on: HCT-116 colon
RPMI-8226 leukemia = tested on: RPMI-8226 leukemia
M14 melanoma = tested on: M14 melanoma
SF-539 CNS = tested on: SF-539 CNS
K-562 leukemia = tested on: K-562 leukemia
MALME-3M melanoma = tested on: MALME-3M melanoma
SK-MEL-2 melanoma = tested on: SK-MEL-2 melanoma
COLO 205 colon = tested on: COLO 205 colon
HT29 colon = tested on: HT29 colon
HOP-92 NSCLC = tested on: HOP-92 NSCLC
CAKI-1 renal = tested on: CAKI-1 renal
TK-10 renal = tested on: TK-10 renal
IGROV1 ovarian = tested on: IGROV1 ovarian
UACC-62 melanoma = tested on: UACC-62 melanoma
UACC-257 melanoma = tested on: UACC-257 melanoma
HOP-62 NSCLC = tested on: HOP-62 NSCLC
U251 CNS = tested on: U251 CNS
RXF 393 renal = tested on: RXF 393 renal
SK-MEL-28 melanoma = tested on: SK-MEL-28 melanoma
NCI-H460 lung = tested on: NCI-H460 lung
A498 renal = tested on: A498 renal
OVCAR-5 ovarian = tested on: OVCAR-5 ovarian
SK-OV-3 ovarian = tested on: SK-OV-3 ovarian
LOX IMVI melanoma = tested on: LOX IMVI melanoma
T-47D breast = tested on: T-47D breast
SF-295 CNS = tested on: SF-295 CNS
SNB-75 CNS = tested on: SNB-75 CNS
KM12 colon = tested on: KM12 colon
SW-620 colon = tested on: SW-620 colon
786-0 renal = tested on: 786-0 renal
HCC-2998 colon = tested on: HCC-2998 colon
BT-549 breast = tested on: BT-549 breast
SNB-19 CNS = tested on: SNB-19 CNS
SN12C renal = tested on: SN12C renal

With `COc1ccc(/C(COc2ccc3c(c2)oc(=O)c2cc(OC)ccc23)=N/O)cc1` the GI50 (MDA-MB-231 breast) was 10.8 µM, the TGI (MDA-MB-231 breast) was > 100 µM and the GI50 (PC-3 prostate) was 7.28 µM. The TGI (PC-3 prostate) was > 100 µM, the GI50 (CCRF-CEM leukemia) was 8.05 µM and the TGI (CCRF-CEM leukemia) was > 100 µM. The GI50 (OVCAR-8 ovarian) was 11.4 µM, the TGI (OVCAR-8 ovarian) was > 100 µM and the GI50 (UO-31 renal) was 17.1 µM. The TGI (UO-31 renal) was > 100 µM, the GI50 (NCI-H23 lung) was 20.5 µM and the TGI (NCI-H23 lung) was > 100 µM. The GI50 (HCT-15 colon) was 5.16 µM, the TGI (HCT-15 colon) was > 100 µM and the GI50 (DU-145 prostate) was 29.2 µM. The TGI (DU-145 prostate) was > 100 µM, the GI50 (MOLT-4 leukemia) was 5.86 µM and the TGI (MOLT-4 leukemia) was > 100 µM. For the same molecule, the GI50 (OVCAR-4 ovarian) was 24.7 µM, the TGI (OVCAR-4 ovarian) was > 100 µM and the GI50 (SF-268 CNS) was 8.33 µM. The TGI (SF-268 CNS) was > 100 µM, the GI50 (MCF7 breast) was 4.16 µM and the TGI (MCF7 breast) was > 100 µM. For the same molecule, the GI50 (OVCAR-3 ovarian) was 3.68 µM, the TGI (OVCAR-3 ovarian) was > 100 µM and the GI50 (NCI/ADR-RES ovarian) was 2.96 µM. For the same molecule, the TGI (NCI/ADR-RES ovarian) was 9.76 µM, the GI50 (NCI-H226 lung) was 41.7 µM and the TGI (NCI-H226 lung) was > 100 µM. It also gave a GI50 (SK-MEL-5 melanoma) of 4.27 µM, a TGI (SK-MEL-5 melanoma) of 69.4 µM and a GI50 (NCI-H522 lung) of 3.55 µM. For the same molecule, the TGI (NCI-H522 lung) was 19.1 µM, the GI50 (EKVX NSCLC) was 23.7 µM and the TGI (EKVX NSCLC) was > 100 µM. For the same molecule, the GI50 (A549 NSCLC) was 7.41 µM, the TGI (A549 NSCLC) was > 100 µM and the GI50 (HS 578T breast) was 10.6 µM. For the same molecule, the TGI (HS 578T breast) was > 100 µM, the GI50 (HCT-116 colon) was 4.18 µM and the TGI (HCT-116 colon) was > 100 µM. For the same molecule, the GI50 (RPMI-8226 leukemia) was 5.44 µM, the TGI (RPMI-8226 leukemia) was > 100 µM and the GI50 (M14 melanoma) was 4.29 µM. For the same molecule, the TGI (M14 melanoma) was > 100 µM, the GI50 (SF-539 CNS) was 8.33 µM and the TGI (SF-539 CNS) was 51.3 µM. The GI50 (K-562 leukemia) was 5.36 µM, the TGI (K-562 leukemia) was > 100 µM and the GI50 (MALME-3M melanoma) was 65.7 µM. For the same molecule, the TGI (MALME-3M melanoma) was > 100 µM, the GI50 (SK-MEL-2 melanoma) was 15.2 µM and the TGI (SK-MEL-2 melanoma) was > 100 µM. The GI50 (COLO 205 colon) was 3.75 µM, the TGI (COLO 205 colon) was > 100 µM and the GI50 (HT29 colon) was 3.72 µM. The TGI (HT29 colon) was 74.8 µM, the GI50 (HOP-92 NSCLC) was 80.9 µM and the TGI (HOP-92 NSCLC) was > 100 µM. For the same molecule, the GI50 (CAKI-1 renal) was 6.4 µM, the TGI (CAKI-1 renal) was > 100 µM and the GI50 (TK-10 renal) was 8.14 µM. The TGI (TK-10 renal) was > 100 µM, the GI50 (IGROV1 ovarian) was 4.87 µM and the TGI (IGROV1 ovarian) was > 100 µM. The GI50 (UACC-62 melanoma) was 3.94 µM, the TGI (UACC-62 melanoma) was > 100 µM and the GI50 (UACC-257 melanoma) was 24.8 µM. The TGI (UACC-257 melanoma) was > 100 µM, the GI50 (HOP-62 NSCLC) was 8.86 µM and the TGI (HOP-62 NSCLC) was > 100 µM. The GI50 (U251 CNS) was 5.08 µM, the TGI (U251 CNS) was > 100 µM and the GI50 (RXF 393 renal) was 26.8 µM. The TGI (RXF 393 renal) was > 100 µM, the GI50 (SK-MEL-28 melanoma) was 4.86 µM and the TGI (SK-MEL-28 melanoma) was > 100 µM. The GI50 (NCI-H460 lung) was 3.97 µM, the TGI (NCI-H460 lung) was > 100 µM and the GI50 (A498 renal) was 3.22 µM. For the same molecule, the TGI (A498 renal) was 52.2 µM, the GI50 (OVCAR-5 ovarian) was > 100 µM and the TGI (OVCAR-5 ovarian) was > 100 µM. The GI50 (SK-OV-3 ovarian) was 37.4 µM, the TGI (SK-OV-3 ovarian) was > 100 µM and the GI50 (LOX IMVI melanoma) was 8.12 µM. The TGI (LOX IMVI melanoma) was 67.2 µM, the GI50 (T-47D breast) was 6.9 µM and the TGI (T-47D breast) was > 100 µM. The GI50 (SF-295 CNS) was 6.2 µM, the TGI (SF-295 CNS) was > 100 µM and the GI50 (SNB-75 CNS) was 2.73 µM. For the same molecule, the TGI (SNB-75 CNS) was 9.98 µM, the GI50 (KM12 colon) was 4.67 µM and the TGI (KM12 colon) was > 100 µM. For the same molecule, the GI50 (SW-620 colon) was 4.34 µM, the TGI (SW-620 colon) was > 100 µM and the GI50 (786-0 renal) was 14.8 µM. For the same molecule, the TGI (786-0 renal) was > 100 µM, the GI50 (HCC-2998 colon) was 7.64 µM and the TGI (HCC-2998 colon) was > 100 µM. The GI50 (BT-549 breast) was 15 µM, the TGI (BT-549 breast) was > 100 µM and the GI50 (SNB-19 CNS) was 4.34 µM. For the same molecule, the TGI (SNB-19 CNS) was > 100 µM, the GI50 (SN12C renal) was 13.6 µM and the TGI (SN12C renal) was > 100 µM.
